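1) Cells in 96-well plates. 2) Compound, 48 h, 5 concentrations. 3) Linear interpolation between surrounding doses. 4) Unreached endpoint = highest concentration. At the GI50, growth is halved.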 Activity calls are given as the source filed them. Rule as the data show it: active = GI50 up to about 1.1 µM and inactive = higher.
Tests used:
Assay in all cases: NCI anticancer screen, dose series, 48 h
786-0 = tested on: 786-0
A498 = tested on: A498
A549 = tested on: A549
ACHN = tested on: ACHN
CAKI-1 = tested on: CAKI-1
CCRF-CEM = tested on: CCRF-CEM
COLO 205 = tested on: COLO 205
DLD-1 = tested on: DLD-1
DMS-114 = tested on: DMS-114
HCT-116 = tested on: HCT-116
HCT-15 = tested on: HCT-15
HL-60 = tested on: HL-60
HOP-18 = tested on: HOP-18
HOP-62 = tested on: HOP-62
HOP-92 = tested on: HOP-92
HT-29 = tested on: HT-29
IGROV-1 = tested on: IGROV-1
K562 = tested on: K562
KM-20L2 = tested on: KM-20L2
KM12 = tested on: KM12
LOX IMVI = tested on: LOX IMVI
LXFL 529 = tested on: LXFL 529
M14 = tested on: M14
M19-MEL = tested on: M19-MEL
MOLT-4 = tested on: MOLT-4
Malme-3M = tested on: Malme-3M
NCI-H226 = tested on: NCI-H226
NCI-H23 = tested on: NCI-H23
NCI-H460 = tested on: NCI-H460
NCI-H522 = tested on: NCI-H522
OVCAR-3 = tested on: OVCAR-3
OVCAR-4 = tested on: OVCAR-4
OVCAR-5 = tested on: OVCAR-5
OVCAR-8 = tested on: OVCAR-8
RPMI-8226 = tested on: RPMI-8226
SF-268 = tested on: SF-268
SF-295 = tested on: SF-295
SF-539 = tested on: SF-539
SK-MEL-28 = tested on: SK-MEL-28
SK-MEL-2 = tested on: SK-MEL-2
SK-MEL-5 = tested on: SK-MEL-5
SK-OV-3 = tested on: SK-OV-3
SN12C = tested on: SN12C
SNB-19 = tested on: SNB-19
SNB-75 = tested on: SNB-75
SNB-78 = tested on: SNB-78
SR = tested on: SR
SW-620 = tested on: SW-620
TK-10 = tested on: TK-10
U-251 = tested on: U-251
UACC-257 = tested on: UACC-257
UACC-62 = tested on: UACC-62
UO-31 = tested on: UO-31
DMS-273 = tested on: DMS-273
EKVX = tested on: EKVX
HCC 2998 = tested on: HCC 2998
RXF 393 = tested on: RXF 393

Measured: GI50

CSc1nc(NC2OC(COC(C)=O)C(OC(C)=O)C(OC(C)=O)C2OC(C)=O)c(-c2csc(N)n2)c(=O)n1C (stereo unspecified)
inactive: 786-0 18.5 µM | A498 > 100 µM | A549 43.4 µM | ACHN 31.5 µM | CAKI-1 31.3 µM | CCRF-CEM > 100 µM | COLO 205 > 100 µM | DLD-1 44.8 µM | DMS-114 34.8 µM | HCT-116 31 µM | HL-60 > 100 µM | HOP-18 16.6 µM | HOP-62 24.2 µM | HOP-92 23.5 µM | HT-29 > 100 µM | IGROV-1 34.1 µM | K562 > 100 µM | KM-20L2 > 100 µM | KM12 > 100 µM | LOX IMVI 93.3 µM | LXFL 529 31.7 µM | M14 39.1 µM | M19-MEL 47.6 µM | MOLT-4 > 100 µM | Malme-3M 28.9 µM | NCI-H226 15.7 µM | NCI-H23 39.3 µM | NCI-H460 39.1 µM | NCI-H522 56.2 µM | OVCAR-3 54 µM | OVCAR-4 21.8 µM | OVCAR-5 > 100 µM | OVCAR-8 26.1 µM | RPMI-8226 > 100 µM | SF-268 22.5 µM | SF-295 33.6 µM | SF-539 25.2 µM | SK-MEL-28 37.7 µM | SK-MEL-2 28.6 µM | SK-MEL-5 57.5 µM | SK-OV-3 50.7 µM | SN12C 49.5 µM | SNB-19 56.6 µM | SNB-75 18 µM | SNB-78 22.4 µM | SR > 100 µM | SW-620 > 100 µM | TK-10 > 100 µM | U-251 34.3 µM | UACC-257 32.9 µM | UACC-62 26.1 µM | UO-31 24.6 µM
97.1 µM: HCT-15

CN(C)C(=S)/N=c1\ss/c(=N\C(=S)N(C)C)n1-c1ccc(Cl)c(Cl)c1
> 100 µM: HCT-15
inactive: 786-0 > 100 µM | A498 > 100 µM | A549 > 100 µM | ACHN > 100 µM | CAKI-1 > 100 µM | CCRF-CEM > 100 µM | COLO 205 > 100 µM | DMS-114 > 100 µM | DMS-273 > 100 µM | EKVX > 100 µM | HCC 2998 > 100 µM | HCT-116 > 100 µM | HL-60 > 100 µM | HOP-62 40.6 µM | HT-29 > 100 µM | IGROV-1 > 100 µM | K562 > 100 µM | KM-20L2 > 100 µM | KM12 > 100 µM | LOX IMVI > 100 µM | M14 > 100 µM | M19-MEL > 100 µM | MOLT-4 > 100 µM | Malme-3M > 100 µM | NCI-H226 > 100 µM | NCI-H23 > 100 µM | NCI-H460 > 100 µM | NCI-H522 > 100 µM | OVCAR-3 > 100 µM | OVCAR-4 > 100 µM | OVCAR-5 > 100 µM | OVCAR-8 > 100 µM | RPMI-8226 > 100 µM | RXF 393 89.9 µM | SF-268 > 100 µM | SF-295 > 100 µM | SF-539 > 100 µM | SK-MEL-28 > 100 µM | SK-MEL-2 > 100 µM | SK-MEL-5 > 100 µM | SK-OV-3 > 100 µM | SN12C > 100 µM | SNB-19 > 100 µM | SNB-75 27.1 µM | SNB-78 67.1 µM | SR > 100 µM | SW-620 > 100 µM | TK-10 > 100 µM | U-251 > 100 µM | UACC-257 > 100 µM | UACC-62 30.9 µM | UO-31 > 100 µM

Source: ChEMBL document CHEMBL1201862, “PubChem BioAssay data set” (2004)
